Experimental data from patent US20230158015A1, “DRUG COMBINATIONS FOR INHIBITING INFLAMMATION AND SRC KINASE ACTIVATION FOLLOWING INVASIVE SURGICAL PROCEDURES” (SINTETICA S.A., priority 2020, published 2023).
Where two headings read alike, the source gives them in different places.

Assays:
p-Src / total Src [1] = test: Total Src and p-Src expression in AsPc 1 human pancreatic cancer cell line (Western blot); format: cell-based
Procedure: (§1) Example 10 evaluated the effect of 10 µM lidocaine (L), 100 nM methylnaltrexone (M) and the combination of 10 µM lidocaine + 100 nM methylnaltrexone (L+M) for 1 hour on total Src and p-Src expression in a human pancreatic cancer cell line (AsPc 1).
(§2) • P-Src-Tyr416 (GeneTex # GTX81151) 1:2000 in 5% bovine serum albumin, at room temperature, 4 hours • Total Src (CST # 2108S) 1:3000 in 5% bovine serum albumin, at room temperature, 4 hours

[2] = tested on: patients with advanced disease and cancer; conditions: regular clinical doses; cited from earlier work
[3] = tested on: LPS-challenged C57BL/6 mice; test: LPS-induced inflammation model, H&E histopathology of lungs and spleen; format: in vivo, mouse
Procedure: (§3) C57BL/6J mice (6-8 weeks) were purchased from Charles River Laboratories (USA) and acclimatized for at least 1 week before use. All mice were housed in a pathogen-free facility. The mice received LPS for 24 hours. Following 24 hours, mice were treated either with lidocaine alone or methylnaltrexone alone or a combination of both, as shown in Table 1.
(§4) At the conclusion of the study, the blood and tissue samples were collected for further study. The serum was used to determine pro-inflammatory cytokines using the LEGENDplex™ mouse inflammation panel (BioLegend, USA) kit followed by flow cytometry. The lungs and spleen tissue samples were used for hematoxylin and eosin (H&E) staining and immunohistochemical analyses for immune cells, including macrophages and natural killer (NK) cells, B cells, T cells, and its subsets. For histopathology and immunohistochemistry (IHC), tissue samples were prepared by cutting 4-µm sections from the paraffin blocks. IHC staining was performed by methods described earlier. The images were captured using bright field microscopy (Nikon Microscope). Two independent investigators evaluated the H&E and all immunohistochemical staining. For slide scoring, each investigator assessed the tissues and gave a score of 0 (no expression) to 4+ (strong uniform expression) as described previously. The data were expressed either as the mean ± SD or mean ± SEM by using Graph Pad Prism software.

[4] = tested on: immune cells in lungs and spleen of LPS-challenged mice; test: LPS-induced inflammation model, IHC staining of immune cells in lungs and spleen; format: in vivo, mouse; conditions: lungs and spleen sections
Procedure: as §3
as §4, with “The data were expressed either as the mean ± SD or mean ± SEM by using Graph Pad Prism software.” left out

p-Src / total Src [5] = test: Total Src and p-Src expression in Panc1 human pancreatic cancer cell line (Western blot); format: cell-based; conditions: 10 µM lidocaine, 100 nM methylnaltrexone or both, time points up to 6 hours, fresh media
Procedure: as §2
Example 12 evaluated the effect of 10 µM lidocaine (L), 100 nM methylnaltrexone (M) and the combination of 10 µM lidocaine + 100 nM methylnaltrexone (L+M) on total Src and p-Src expression in a human pancreatic cancer cell line (Panc1) at multiple time points up to 6 hours, in fresh media. Experimental conditions were identical to Example 10.

[6] = tested on: human pulmonary microvascular endothelial cell; conditions: with 5-FU and bevacizumab; cited from earlier work
[7] = tested on: LPS-induced serum inflammatory cytokines; test: LPS-induced inflammation model, serum inflammatory cytokines (LEGENDplex, flow cytometry); format: in vivo, mouse; conditions: serum of treated mice
Procedure: as §3, §4
Gram-negative bacterial infections are the main cause of acute lung injury, and LPS, which is the main component of the Gram-negative bacteria cell wall, is the major stimulus for the release of inflammatory mediators. Therefore, we measured the effect of lidocaine alone, methylnaltrexone alone, or a combination of lidocaine and methylnaltrexone on LPS-induced serum inflammatory cytokines profiles. Mouse inflammatory cytokines were measured in serum of control and LPS-challenged mice treated with drugs as described in Table 1, using the LEGENDplex™ mouse inflammation panel (BioLegend, USA) kit followed by flow cytometry as per manufacturer’s specifications. […] However, serum tumor necrosis factor-alpha (TNF-α), monocyte chemoattractant protein 1 (MCP- 1), interleukin 10 (IL-10), interleukin 6 (IL-6), and interleukin 17A (IL-17A) levels were found decreased in mice challenged with LPS and treated with lidocaine and methylnaltrexone together (FIGS. 14C-G). IL-1, IL-6, IL-17A, MCP-1, and TNFα are pro- inflammatory cytokines associated with inflammatory signaling. Taken together, these findings indicate that combined treatment of lidocaine and methylnaltrexone has the potential to suppress inflammatory signaling.

[8] = tested on: receptor protein tyrosine phosphatase; conditions: human endothelial cells, independent of µ-opioid receptor expression; cited from earlier work
p-Src / total Src [9] = test: Total Src and p-Src expression in MiaPaCa 2 human pancreatic cancer cell line (Western blot); format: cell-based; conditions: 10 µM lidocaine, 100 nM methylnaltrexone or both, one hour
Procedure: as §2
as §1, with “Example 11” for “Example 10”, “line (MiaPaCa 2). Experimental conditions were identical to Example 10.” for “line (AsPc 1).”

p-Src / total Src [10] = format: cell-based, mouse
Procedure: On day 1, mouse KPC-105 cells were cultured until 300,000 cells per well in a 6 well plate were obtained. On day 2, the cells were treated with 0, 0.5, 1,5, 10, 15, 30, 50 and 100 µM lidocaine for 30 minutes. Plates were then collected and washed with phosphate buffered saline and stored at -80° C. Cells were subsequently lysed with 100 µl of radioimmunoprecipitation assay buffer with protease and phosphatase buffers.
(§5) Protein estimation was done using a Bradford assay under the following conditions: • A Western Blot was stripped with 6 M guanidine hydrochloride after p-Src protein blocking to probe with total Src protein. • 10% SDS-PAGE 10 well Blocking: 5% bovine serum albumin for p-Src blot. • P-Src-Tyr416 (GeneTex GTX81151) Rb: 1:1000 in 5% bovine serum albumin, Overnight. • Total Src (Cell Signaling Technology 2108S ) Rb mAb 1:1000 overnight in 5% milk. • GAPDH (Invitrogen# AM4300) : 1:5000 in 5% milk overnight. • Wash: 4x for 5 minutes each with 1x TBST. • Developed using 50% femto for the p-Src protein and homemade ECL substrate for total Src and GAPDH protein.
Example 4 evaluated endogenous Src and p-Src in 10 µM lidocaine treated mouse KPC-105 cells at different time points.
Example 5 evaluated endogenous Src and p-Src in mouse KPC-105 cells treated with 10 10 µM lidocaine for different time points, and increasing doses of methylnaltrexone after one hour of incubation. Western Blot banding patterns were generated using 15 µg /lane (NP40 lysates) 10% SDS PAGE over a 6-hour duration (lidocaine) and a 1-hour duration (methylnaltrexone).
• P-Src-Tyr416 (GeneTex # GTX81151) Rb: 1:1000 in 5% bovine serum albumin o/n at 4° C. • 10 µg /lane (NP40 lysates) 10% SDS PAGE • Total Src (CST # 2108S ) Rb mAb 1:1000 in 5% bovine serum albumin o/n at 4° C.
• P-Src-Tyr416 (GeneTex # GTX81151) Rb: 1:1000 in 5% bovine serum albumin 3 hours at room temperature • 10 µg /lane (NP40 lysates) 10% SDS PAGE • Total Src (CST # 2108S ) Rb mAb 1:1000 in 5% bovine serum albumin 3 hours at room temperature
• P-Src-Tyr416 (GeneTex # GTX81151) 1:2000 in 5% bovine serum albumin, o/n at 4° C. • Total Src (CST # 2108S ) 1:3000 in 5% bovine serum albumin, o/n at 4° C. • Vinculin (ProteinTech) 1:4000 in 5% milk o/n at 4° C.
• P-Src-Tyr416 (GeneTex # GTX81151) 1:2000 in 5% bovine serum albumin, o/n at 4C • Total Src (CST # 2108S ) 1:3000 in 5% bovine serum albumin, o/n at 4C

Src protein [11] = test: p-Src activation in TNF-α treated human pancreatic cancer cell line (Western blot); format: cell-based; conditions: TNF-α 20 ng/ml
Procedure: (§6) On day 1, KPC-105 mouse and human pancreatic cancer cell lines were cultured until 300,000 cells per well in a 6 well plate were obtained. On day 2, each cell line was treated with 20 ng/ml or mouse or human TNF-α for 2-hours. Cells were then collected and washed with phosphate buffered saline and stored at -80° C. Cells were then lysed with 100 µl of radioimmunoprecipitation assay buffer with protease and phosphatase buffers.
as §5, with “estimation was then performed using a” for “estimation was done using a”, “10% SDS-PAGE with 15 well Blocking:” for “10% SDS-PAGE 10 well Blocking:”, “for p-Src blot P-Src-Tyr416 (GeneTex” for “for p-Src blot. • P-Src-Tyr416 (GeneTex”, “overnight in 5 % milk. •” for “overnight in 5% milk. •”, “homemade ECL for total” for “homemade ECL substrate for total”

Src protein [12] = test: p-Src activation in TNF-α treated KPC-105 mouse cell line (Western blot); format: cell-based; conditions: TNF-α 20 ng/ml
Procedure: as §6
as §5, with “estimation was then performed using a” for “estimation was done using a”, “10% SDS-PAGE with 15 well Blocking:” for “10% SDS-PAGE 10 well Blocking:”, “for p-Src blot P-Src-Tyr416 (GeneTex” for “for p-Src blot. • P-Src-Tyr416 (GeneTex”, “overnight in 5 % milk. •” for “overnight in 5% milk. •”, “homemade ECL for total” for “homemade ECL substrate for total”

[13] = Example 8, 10 µM lidocaine, 100 nM methylnaltrexone or both, different time points

Compound | Src after Src normalization (p-Src / total Src [1]; 100 nM methylnaltrexone exposure, preliminary results) | p-Src activity (p-Src / total Src [1]; 10 µM lidocaine, 100 nM methylnaltrexone or both, one hour) | overall survival [2] | H&E staining, histopathology of lungs ([3]; LPS challenged mice, lungs) | histological examination of spleen ([3]; LPS challenged mice, spleen) | LPS-induced inflammation (overall conclusion) ([3]; mouse model, drug alone) | F4/80 positive area (macrophages) [4] | p-Src (p-Src / total Src [5]) | inhibition of VEGF-induced cell proliferation and migration [6] | serum interferon-gamma (IFNγ) level [7] | serum interleukin 1 alpha (IL-1α) level [7] | receptor protein tyrosine phosphatase activity [8] | p-Src (p-Src / total Src [9]) | total Src (p-Src / total Src [10]; Example 5, 10 µM lidocaine over 6 hours, increasing doses of methylnaltrexone, 1 hour) | concentrations attenuating Src phosphorylation (p-Src / total Src [10]; Example 5, 1 hour incubation) | phosphorylation of Src (p-Src / total Src [10]; Example 6, 100 nM methylnaltrexone, different time points) | phosphorylation of Src (p-Src / total Src [10]; [13]) | total Src (p-Src / total Src [10]; [13]) | time of maximum activation of Src protein (Src protein [11]) [min] | time of maximum activation of Src protein (Src protein [12]) [min]
C[N@+]1(CC2CC2)CC[C@]23c4c5ccc(O)c4O[C@H]2C(=O)CC[C@@]3(O)[C@H]1C5 [methylnaltrexone] | no increase in Src | attenuated p-Src activity | increased overall survival | perivascular edema and accumulation of mixed cell infiltration within blood, and lymphatic vessels | increased number of erythrocytes in the red pulp, along with mild edema | partially mitigate | partially decreased | initially decreased p-Src at 30 minutes and 1 hour | synergistic effect | insignificant changes | insignificant changes | increased | attenuated p-Src | not affected | above 50 nM | attenuates phosphorylation of Src in KPC-105 cells starting at 2 hours | attenuated phosphorylation of Src after 1 hour of exposure | decreased total Src after 1 hour of exposure | – | –
O=C1CC[C@@]2(O)[C@H]3Cc4ccc(O)c5c4[C@@]2(CCN3CC2CC2)[C@H]1O5 [naltrexone] | – | – | – | – | – | – | – | – | – | – | – | not | – | – | – | – | – | – | – | –
TNF-α | – | – | – | – | – | – | – | – | – | – | – | – | – | – | – | – | – | – | 45 | 45
